Test results published in PubChem BioAssay AID1745844 (Carcinogenic Potency Database (CPDB), 2022).
Where “and” joins values, the source holds several entries; their conditions need not be identical. Equal values may be shown once. Calls of active or inactive are those of the source. The rule behind the calls is not given here.

System: rodent lifetime carcinogenesis bioassay, tumor incidence TD50
Experiment: carcinogenic potency in animals, long-term in vivo studies, CPDB compilation (AID 1745844)

## CN(C)NC(=O)CCC(=O)O
mouse, strain B6C3F1, females, in feed, site: any site (literature study), lesion: several types, types named in the paper, dosed 104 weeks, study length 105 weeks
  TD50: 56400 mg/kg/day (inactive)
mouse, strain B6C3F1, females, in feed, site: liver, lesion: hepatocellular adenoma + hepatocellular carcinoma + neoplastic nodule, dosed 104 weeks, study length 105 weeks
  TD50: 6820 mg/kg/day
mouse, strain B6C3F1, females, in feed, site: lung, lesion: alveolar/bronchiolar adenoma + alveolar/bronchiolar carcinoma, dosed 104 weeks, study length 105 weeks
  TD50: 2920 mg/kg/day
mouse, strain B6C3F1, males, in feed, site: any site (literature study), lesion: several types, types named in the paper, dosed 104 weeks, study length 105 weeks
  TD50: 1500 mg/kg/day
mouse, strain B6C3F1, males, in feed, site: liver, lesion: hepatocellular adenoma + hepatocellular carcinoma + neoplastic nodule, dosed 104 weeks, study length 105 weeks
  TD50: 2450 mg/kg/day
mouse, strain B6C3F1, males, in feed, site: liver, lesion: hepatocellular adenoma + hepatocellular carcinoma, dosed 104 weeks, study length 105 weeks
  TD50: 2450 mg/kg/day
mouse, strain B6C3F1, males, in feed, site: liver, lesion: hepatocellular carcinoma, dosed 104 weeks, study length 105 weeks
  TD50: 2150 mg/kg/day
mouse, strain B6C3F1, males, in feed, site: lung, lesion: alveolar/bronchiolar adenoma + alveolar/bronchiolar carcinoma, dosed 104 weeks, study length 105 weeks
  TD50: 3400 mg/kg/day
mouse, strain Swiss albino, females, in drinking water, site: blood vessels, lesion: several types, types named in the paper, dosed 92 weeks, study length 92 weeks
  TD50: 1240 mg/kg/day
mouse, strain Swiss albino, females, in drinking water, site: lung, lesion: several types, types named in the paper, dosed 92 weeks, study length 92 weeks
  TD50: 1370 mg/kg/day
mouse, strain Swiss albino, males, in drinking water, site: blood vessels, lesion: several types, types named in the paper, dosed 81 weeks, study length 81 weeks
  TD50: 880 mg/kg/day
mouse, strain Swiss albino, males, in drinking water, site: kidney, lesion: adenoma, dosed 81 weeks, study length 81 weeks
  TD50: 10900 mg/kg/day
mouse, strain Swiss albino, males, in drinking water, site: liver, lesion: hepatoma, dosed 81 weeks, study length 81 weeks
  TD50: 38800 mg/kg/day (inactive)
mouse, strain Swiss albino, males, in drinking water, site: lung, lesion: several types, types named in the paper, dosed 81 weeks, study length 81 weeks
  TD50: 1110 mg/kg/day
rat, strain Fischer 344, females, in feed, site: any site (literature study), lesion: several types, types named in the paper, dosed 104 weeks, study length 105 weeks
  TD50: 3450 mg/kg/day
rat, strain Fischer 344, females, in feed, site: liver, lesion: hepatocellular adenoma + hepatocellular carcinoma + neoplastic nodule, dosed 104 weeks, study length 105 weeks
  TD50: 9640 mg/kg/day
rat, strain Fischer 344, females, in feed, site: lung, lesion: alveolar/bronchiolar adenoma, dosed 104 weeks, study length 105 weeks
  TD50: 4890 mg/kg/day
rat, strain Fischer 344, females, in feed, site: uterus + uterus, endometrium, lesion: leiomyosarcoma + adenocarcinoma, NOS, dosed 104 weeks, study length 105 weeks
  TD50: 1840 mg/kg/day
rat, strain Fischer 344, females, in feed, site: uterus, endometrium, lesion: adenocarcinoma, NOS, dosed 104 weeks, study length 105 weeks
  TD50: 2500 mg/kg/day
rat, strain Fischer 344, females, in feed, site: uterus, lesion: leiomyosarcoma, dosed 104 weeks, study length 105 weeks
  TD50: 5270 mg/kg/day
rat, strain Fischer 344, males, in feed, site: any site (literature study), lesion: several types, types named in the paper, dosed 104 weeks, study length 105 weeks
  carcinogen call: negative (inactive)

## Cc1c2ccccc2c(C)c2c1ccc1ccccc12
mouse, strain albino, females, in feed, site: forestomach, lesion: papilloma, dosed 60 weeks, study length 60 weeks
  TD50: 0.287 mg/kg/day
mouse, strain albino, females, in feed, site: mesenteric intestine, lesion: angio-endothelioma, malignant, dosed 60 weeks, study length 60 weeks
  TD50: 0.084 mg/kg/day

## CCC(C)[C@H]1O[C@]2(CC[C@@H]1C)CC1C[C@@H](C/C=C(\C)[C@@H](O[C@H]3C[C@H](OC)[C@@H](OC4C[C@H](OC)[C@@H](O)[C@H](C)O4)[C@H](C)O3)[C@@H](C)/C=C/C=C3\CO[C@@H]4[C@H](O)C(C)=C[C@@H](C(=O)O1)[C@]34O)O2 (some centres not stated) (tested in a mixture with another compound)
rat, strain Wistar, males, in feed, site: forestomach, lesion: one or several types, types not named, dosed 52 weeks, study length 52 weeks
  carcinogen call: negative (inactive)

## CCOC(=O)c1ccc(N)cc1
rat, strain ACI, both sexes, in feed, site: colorectum, lesion: papilloma, dosed 94 weeks, study length 94 weeks
  TD50: 331 mg/kg/day
rat, strain ACI, both sexes, in feed, site: colorectum, lesion: squamous-cell carcinoma, dosed 94 weeks, study length 94 weeks
  TD50: 1760 mg/kg/day
rat, strain ACI, both sexes, in feed, site: intestine, lesion: several types, types named in the paper, dosed 94 weeks, study length 94 weeks
  TD50: 191 mg/kg/day
rat, strain ACI, females, in feed, site: cecum, lesion: adenoma, dosed 68 weeks, study length 68 weeks
  TD50: 1270 mg/kg/day
rat, strain ACI, females, in feed, site: colorectum, lesion: adenocarcinoma, dosed 68 weeks, study length 68 weeks
  TD50: 373 mg/kg/day
rat, strain ACI, females, in feed, site: colorectum, lesion: adenoma, dosed 68 weeks, study length 68 weeks
  TD50: 977 mg/kg/day
rat, strain ACI, females, in feed, site: colorectum, lesion: papilloma, dosed 68 weeks, study length 68 weeks
  TD50: 219 mg/kg/day
rat, strain ACI, females, in feed, site: colorectum, lesion: squamous-cell carcinoma, dosed 68 weeks, study length 68 weeks
  TD50: 1760 mg/kg/day
rat, strain ACI, females, in feed, site: urinary bladder, lesion: one or several types, types not named, dosed 68 weeks, study length 68 weeks
  TD50: 2560 mg/kg/day (inactive) and 1640 mg/kg/day (inactive)
rat, strain ACI, males, in feed, site: cecum, lesion: adenoma, dosed 68 weeks, study length 68 weeks
  TD50: 4250 mg/kg/day (inactive)
rat, strain ACI, males, in feed, site: colorectum, lesion: adenocarcinoma, dosed 68 weeks, study length 68 weeks
  TD50: 182 mg/kg/day
rat, strain ACI, males, in feed, site: colorectum, lesion: adenoma, dosed 68 weeks, study length 68 weeks
  TD50: 1700 mg/kg/day
rat, strain ACI, males, in feed, site: colorectum, lesion: squamous-cell carcinoma, dosed 68 weeks, study length 68 weeks
  TD50: 2050 mg/kg/day
